The experiment has as its target T1, E. coli CsgA (Escherichia coli, UniProt P28307).
T1 construct: made in house; host or cells: E. coli NEB 3016 slyD::kan, pET11d
In words: In vitro ThioflavinT assay of CsgA aggregation (CsgA ThT Assay). Particulars: 1005 minutes; for remaining activity at 25 µM: compound 25 μM; for remaining activity at 100 µM: compound 100 μM. Type of experiment: biochemical. The method in brief:
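Purified C-terminal His-tagged CsgA, monomerised by desalting and 30-kDa filtration, at 2-20 μM with 20-40 μM ThT in 50 mM potassium phosphate pH 7.3, 1% DMSO, compounds 3.125-200 uM; room temperature, fluorescence (ex 438/em 495 nm) read every 15 min. Background-subtracted signal expressed as percent inhibition versus vehicle at 6-6.5 or 8-9 h, or as percent control AUC.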

The mark [1] stands for this setting: read-out: CsgA ThT Assay (10 μM CsgA) % Control AUC at 1005 minutes, 25 μM (activity range), CsgA 10 μM, black plates, class symbol.
[2] abbreviates: read-out: CsgA ThT Assay (10 μM CsgA) % Control AUC at 1005 minutes, 25 μM, mean AUC as % of DMSO control, CsgA 10 μM, black plates.
Where [3] appears, read: read-out: CsgA ThT Assay (10 μM CsgA) % Control AUC at 1005 minutes, 100 μM (activity range), CsgA 10 μM, black plates, class symbol.
Setting [4] is: read-out: CsgA ThT Assay (10 μM CsgA) % Control AUC at 1005 minutes, 100 μM, mean AUC as % of DMSO control, CsgA 10 μM, black plates.

Read-outs that look alike come from different tables or passages of the source.

T1 sequence (P28307 23-151): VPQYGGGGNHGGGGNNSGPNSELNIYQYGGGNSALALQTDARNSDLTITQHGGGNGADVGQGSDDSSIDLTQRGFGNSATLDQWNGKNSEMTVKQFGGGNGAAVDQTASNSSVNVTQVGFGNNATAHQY

With `O=C(O)C1CSc2c(-c3cccc(C(F)(F)F)c3)c(Cc3cccc4ccccc34)cc(=O)n21` (single isomer, unassigned) [Compound 011a, 7-(naphthalen-1-ylmethyl)-5-oxo-8-(3-(trifluoromethyl)phenyl)-2,3-dihydro-5H-thiazolo[3,2-a]pyridine-3-carboxylic acid], the remaining activity at 25 µM is, setting by setting: under setting [1], 31 to 60%; under setting [2], 47%. The remaining activity at 100 µM under setting [3] fell in the range of 31 to 60% and the remaining activity at 100 µM under setting [4] came out at 41%.
As to `O=C(O)C1CN(CCCO)S(=O)(=O)c2c(-c3cccc(C(F)(F)F)c3)c(Cc3cccc4ccccc34)c(NC3CCCC3)c(=O)n21` (centres unmarked) [Compound 120, 7-(cyclopentylamino)-2-(3-hydroxypropyl)-8-(naphthalen-1-ylmethyl)-6-oxo-9-(3-(trifluoromethyl)phenyl)-3,4-dihydro-2H,6H-pyrido[1,2-e][1,2,5]thiadiazine-4-carboxylic acid 1,1-dioxide], the remaining activity at 25 µM by setting is: under setting [1], 11 to 31%; under setting [2], 28%. Besides, the remaining activity at 100 µM is, setting by setting: under setting [3], 11 to 31%; under setting [4], 12%.
On to `CN(C)Cc1c(Cc2cccc3ccccc23)c(-c2cccc(C(F)(F)F)c2)c2n(c1=O)C(C(=O)O)CS2` (centres unmarked) [Compound 075, 6-((dimethylamino)methyl)-7-(naphthalen-1-ylmethyl)-5-oxo-8-(3-(trifluoromethyl)phenyl)-2,3-dihydro-5H-thiazolo[3,2-a]pyridine-3-carboxylic acid], for which the remaining activity at 25 µM is above 60% under setting [1] and 118% under setting [2]. Besides, the remaining activity at 100 µM runs as follows: under setting [3], above 60%; under setting [4], 117%.
With `CCN1CC(C(=O)O)n2c(c(-c3cccc(C(F)(F)F)c3)c(Cc3cccc4ccccc34)cc2=O)S1(=O)=O` (single isomer, unassigned) [Compound 015a, 2-ethyl-8-(naphthalen-1-ylmethyl)-6-oxo-9-(3-(trifluoromethyl)phenyl)-3,4-dihydro-2H,6H-pyrido[1,2-e][1,2,5]thiadiazine-4-carboxylic acid 1,1-dioxide], the remaining activity at 25 µM reads like this: under setting [1], 11 to 31%; under setting [2], 25%. Further, the remaining activity at 100 µM reads like this: under setting [3], 11 to 31%; under setting [4], 17%.
`CCCN1CC(C(=O)O)n2c(c(-c3cccc(C(F)(F)F)c3)c(Cc3cccc4ccccc34)c(NC3CCOCC3)c2=O)S1(=O)=O` (centres unmarked) [Compound 127, 8-(naphthalen-1-ylmethyl)-6-oxo-2-propyl-7-((tetrahydro-2H-pyran-4-yl)amino)-9-(3-(trifluoromethyl)phenyl)-3,4-dihydro-2H,6H-pyrido[1,2-e][1,2,5] thiadiazine-4-carboxylic acid 1,1-dioxide]: the remaining activity at 25 µM runs as follows: under setting [1], 11 to 31%; under setting [2], 26%. The remaining activity at 100 µM under setting [3] is below 10% and the remaining activity at 100 µM under setting [4] was determined as 7%.
Taken in the same sequence, the figures for `Nc1c(Cc2cccc3ccccc23)c(-c2cccc(C(F)(F)F)c2)c2n(c1=O)C(C(=O)O)CS2(=O)=O` (centres unmarked) [Compound 023, 6-amino-7-(naphthalen-1-ylmethyl)-5-oxo-8-(3-(trifluoromethyl)phenyl)-2,3-dihydro-5H-thiazolo[3,2-a]pyridine-3-carboxylic acid 1,1-dioxide] were above 60%, 73%, 31 to 60% and 34%.
For the compound `CN1CC(C(=O)O)n2c(c(-c3cccc(C(F)(F)F)c3)c(Cc3cccc4ccccc34)c(C(N)=O)c2=O)S1(=O)=O` (centres unmarked) [Compound 109, 7-carbamoyl-2-methyl-8-(naphthalen-1-ylmethyl)-6-oxo-9-(3-(trifluoromethyl)phenyl)-3,4-dihydro-2H,6H-pyrido[1,2-e][1,2,5]thiadiazine-4-carboxylic acid 1,1-dioxide], the remaining activity at 25 µM is, setting by setting: under setting [1], 31 to 60%; under setting [2], 55%. For the same compound, the remaining activity at 100 µM under setting [3] lay within 11 to 31% and the remaining activity at 100 µM under setting [4] turned out to be 22%.
`COc1ccc(CN2C[C@@H](C(=O)O)n3c(c(-c4cccc(C(F)(F)F)c4)c(Cc4cccc5ccccc45)cc3=O)S2(=O)=O)cc1` (single isomer, unassigned) [Compound 026a]: the remaining activity at 25 µM under setting [1] fell in the range of 31 to 60% and the remaining activity at 25 µM under setting [2] turned out to be 41%.
Consider `NC(=O)CN1CC(C(=O)O)n2c(c(-c3cccc(C(F)(F)F)c3)c(Cc3cccc4ccccc34)cc2=O)S1(=O)=O` (centres unmarked) [Compound 028, 2-(2-amino-2-oxoethyl)-8-(naphthalen-1-ylmethyl)-6-oxo-9-(3-(trifluoromethyl)phenyl)-3,4-dihydro-2H,6H-pyrido[1,2-e][1,2,5]thiadiazine-4-carboxylic acid 1,1-dioxide], for which the remaining activity at 25 µM is above 60% under setting [1] and 66% under setting [2]. Further, the remaining activity at 100 µM was 11 to 31% under setting [3] and 27% under setting [4].
Turning to `O=C(O)C1CN(CCCCCO)S(=O)(=O)c2c(-c3cccc(C(F)(F)F)c3)c(Cc3cccc4ccccc34)c(NC3CCCC3)c(=O)n21` (centres unmarked) [Compound 122, 7-(cyclopentylamino)-2-(5-hydroxypentyl)-8-(naphthalen-1-ylmethyl)-6-oxo-9-(3-(trifluoromethyl)phenyl)-3,4-dihydro-2H,6H-pyrido[1,2-e][1,2,5]thiadiazine-4-carboxylic acid 1,1-dioxide], the remaining activity at 25 µM runs as follows: under setting [1], 31 to 60%; under setting [2], 32%. In addition, the remaining activity at 100 µM is 11 to 31% under setting [3] and 15% under setting [4].
For `CN(C)CCN1CC(C(=O)O)n2c(c(-c3cccc(C(F)(F)F)c3)c(Cc3cccc4ccccc34)cc2=O)S1(=O)=O` (centres unmarked) [Compound 017, 2-(2-(dimethylamino)ethyl)-8-(naphthalen-1-ylmethyl)-6-oxo-9-(3-(trifluoromethyl)phenyl)-3,4-dihydro-2H,6H-pyrido[1,2-e][1,2,5]thiadiazine-4-carboxylic acid 1,1-dioxide], the remaining activity at 25 µM was above 60% under setting [1] and 95% under setting [2]. The remaining activity at 100 µM runs as follows: under setting [3], above 60%; under setting [4], 70%.
As for `O=C(O)[C@H]1CS(=O)(=O)c2c(-c3cccc(C(F)(F)F)c3)c(Cc3cccc4ccccc34)cc(=O)n21` (single isomer, unassigned) [Compound 010b, 7-(naphthalen-1-ylmethyl)-5-oxo-8-(3-(trifluoromethyl)phenyl)-2,3-dihydro-5H-thiazolo[3,2-a]pyridine-3-carboxylic acid 1,1-dioxide], the remaining activity at 25 µM by setting is: under setting [1], above 60%; under setting [2], 85%. Besides, the remaining activity at 100 µM is, setting by setting: under setting [3], 31 to 60%; under setting [4], 45%.
In the case of `CC(C)N1CC(C(=O)O)n2c(c(-c3cccc(C(F)(F)F)c3)c(Cc3cccc4ccccc34)c(NC3CCCC3)c2=O)S1(=O)=O` (centres unmarked) [Compound 123, 7-(cyclopentylamino)-2-isopropyl-8-(naphthalen-1-ylmethyl)-6-oxo-9-(3-(trifluoromethyl)phenyl)-3,4-dihydro-2H,6H-pyrido[1,2-e][1,2,5]thiadiazine-4-carboxylic acid 1,1-dioxide], the remaining activity at 25 µM is 11 to 31% under setting [1] and 26% under setting [2]. Besides, the remaining activity at 100 µM was 11 to 31% under setting [3] and 25% under setting [4].
As to `O=C(O)[C@@H]1CS(=O)(=O)c2c(-c3cccc(C(F)(F)F)c3)c(Cc3cccc4ccccc34)cc(=O)n21` (single isomer, unassigned) [Compound 010a, 7-(naphthalen-1-ylmethyl)-5-oxo-8-(3-(trifluoromethyl)phenyl)-2,3-dihydro-5H-thiazolo[3,2-a]pyridine-3-carboxylic acid 1,1-dioxide], the remaining activity at 25 µM runs as follows: under setting [1], above 60%; under setting [2], 85%. Also, the remaining activity at 100 µM by setting is: under setting [3], 31 to 60%; under setting [4], 37%.
In the same order, the values of `CN1CC(C(=O)O)n2c(c(-c3cccc(C(F)(F)F)c3)c(Cc3cccc4ccccc34)c(N)c2=O)S1(=O)=O` (centres unmarked) [Compound 074, 7-amino-2-methyl-8-(naphthalen-1-ylmethyl)-6-oxo-9-(3-(trifluoromethyl)phenyl)-3,4-dihydro-2H,6H-pyrido[1,2-e][1,2,5]thiadiazine-4-carboxylic acid 1,1-dioxide] are 11 to 31%, 28%, 11 to 31% and 24%.
`O=C(O)CN1CC(C(=O)O)n2c(c(-c3cccc(C(F)(F)F)c3)c(Cc3cccc4ccccc34)cc2=O)S1(=O)=O` (centres unmarked) [Compound 018, 2-(carboxymethyl)-8-(naphthalen-1-ylmethyl)-6-oxo-9-(3-(trifluoromethyl)phenyl)-3,4-dihydro-2H,6H-pyrido[1,2-e][1,2,5]thiadiazine-4-carboxylic acid 1,1-dioxide]: the remaining activity at 25 µM was above 60% under setting [1] and 95% under setting [2]. The remaining activity at 100 µM under setting [3] lay within 31 to 60% and the remaining activity at 100 µM under setting [4] is 60%.

Source of the values: patent US20230131899A1, “INHIBITORS OF MICROBIALLY INDUCED AMYLOID” (Axial Therapeutics, Inc., priority 2020, published 2023).
